Experimental data as given in DBAASP.
Values after ≈ are worked out from the molar mass of the structure shown. Values belong to the compound of their own block, whether it stands above or below them.

What was measured:
Test in all cases: ≥ marks a high value that may be exact or a test limit, other limits are often not marked, values filed in µg/mL are converted to µM
[1] = system: Acinetobacter baumannii ATCC BAA-747
Acinetobacter baumannii = system: Acinetobacter baumannii
[2] = system: Escherichia coli ATCC 25922
Escherichia coli = system: Escherichia coli
[3] = system: Klebsiella pneumoniae ATCC 700603
Klebsiella pneumoniae = system: Klebsiella pneumoniae
[4] = system: Pseudomonas aeruginosa ATCC 27853
Staphylococcus aureus MR = system: Staphylococcus aureus MR
[5] = system: Staphylococcus aureus NCTC 10442
Staphylococcus aureus = system: Staphylococcus aureus
Escherichia coli D31 = system: Escherichia coli D31
[6] = system: Listeria fleischmannii DSM 24998
Listeria grayi DSM 20601 = system: Listeria grayi DSM 20601
[7] = system: Listeria monocytogenes DSM 20600
[8] = system: Micrococcus luteus DSM 20030
[9] = system: Bacillus atrophaeus BM013
[10] = system: Bacillus licheniformis ATCC 21424
[11] = system: Pseudomonas aeruginosa PAO1
[12] = system: Salmonella enterica subsp. enterica serovar Enteritidis 706 RIVM
[13] = system: Staphylococcus aureus ATCC 29213
[14] = system: Staphylococcus aureus WKZ-2

MIC [1]: 21.9 µM (≈ 64 µg/mL)
MIC (Acinetobacter baumannii): 10.9 µM (≈ 32 µg/mL)
MIC [2]: 10.9 µM (≈ 32 µg/mL)
MIC (Escherichia coli): 7.73 µM (≈ 22.6 µg/mL)
MIC [3]: 43.7 µM (≈ 128 µg/mL)
MIC (Klebsiella pneumoniae): 21.9 µM (≈ 64 µg/mL)
MIC [4]: 43.7 µM (≈ 128 µg/mL)
MIC (Staphylococcus aureus MR): 2.73 µM (≈ 8 µg/mL)
MIC [5]: 5.46 µM (≈ 16 µg/mL)
MIC (Staphylococcus aureus): 5.46 µM (≈ 16 µg/mL)
Compound: CC[C@H](C)[C@H](NC(=O)[C@H](CCSC)NC(=O)[C@H](C)NC(=O)[C@@H]1CCCN1C(=O)[C@@H](NC(=O)[C@@H](NC(=O)[C@H](CCCCN)NC(=O)[C@@H](NC(=O)[C@H](CC(C)C)NC(=O)CNC(=O)CNC(=O)[C@H](CC(C)C)NC(=O)[C@@H](N)Cc1ccccc1)[C@@H](C)CC)[C@@H](C)CC)C(C)C)C(=O)N[C@@H](CS)C(=O)N[C@@H](C)C(=O)N[C@H](C(=O)N[C@H](C(=O)N[C@@H](CCCCN)C(=O)N[C@@H](CCCCN)C(=O)N[C@@H](CS)C(=O)N[C@@H](Cc1cnc[nH]1)C(=O)N[C@@H](Cc1cnc[nH]1)C(=O)N[C@@H](Cc1cnc[nH]1)C(=O)N[C@@H](Cc1cnc[nH]1)C(=O)N[C@@H](Cc1cnc[nH]1)C(=O)N[C@@H](Cc1cnc[nH]1)C(=O)O)[C@@H](C)O)C(C)C [FLGGLIKIVPAMICAVTKKCHHHHHH]

MIC (Escherichia coli D31): 8 µM (≈ 20 µg/mL)
MIC [6]: 30 µM (≈ 74.9 µg/mL)
MIC (Listeria grayi DSM 20601): 8 µM (≈ 20 µg/mL)
MIC [7]: 30 µM (≈ 74.9 µg/mL)
MIC [8]: 0.25 µM (≈ 0.625 µg/mL)
Compound: CC[C@H](C)[C@H](NC(=O)[C@H](C)NC(=O)[C@H](CO)NC(=O)[C@H](CCCCN)NC(=O)[C@@H]1CCCN1C(=O)[C@@H](NC(=O)[C@H](CCCCN)NC(=O)[C@H](CC(C)C)NC(=O)[C@H](CO)NC(=O)[C@H](CC(C)C)NC(=O)[C@H](CCCCN)NC(=O)[C@H](CC(C)C)NC(=O)[C@H](Cc1ccccc1)NC(=O)[C@@H]1CCCN1C(=O)[C@@H](N)Cc1ccccc1)[C@@H](C)CC)C(=O)N[C@@H](CCCCN)C(=O)N[C@@H](CO)C(=O)N[C@@H](C)C(=O)N[C@H](C(=O)N[C@@H](CCCCN)C(=O)N[C@@H](CCCN=C(N)N)C(=O)N[C@@H](CC(C)C)C(N)=O)[C@@H](C)CC [FPFLKLSLKIPKSAIKSAIKRL]

MIC [9]: 2.5 µM (≈ 7.05 µg/mL)
MIC [10]: 1.25 µM (≈ 3.53 µg/mL)
MIC [2]: 10 µM (≈ 28.2 µg/mL)
MIC [4]: > 40 µM
MIC [11]: 20 µM (≈ 56.4 µg/mL)
MIC [12]: ≥ 40 µM
MIC [13]: > 40 µM
MIC [14]: ≥ 40 µM
Compound: CC[C@H](C)[C@H](NC(=O)[C@H](Cc1ccccc1)NC(=O)[C@H](CCCCN)NC(=O)[C@H](CC(C)C)NC(=O)[C@H](CCCCN)NC(=O)CNC(=O)[C@@H]1CCCN1C(=O)[C@H](CCCCN)NC(=O)[C@H](CC(C)C)NC(=O)[C@H](C)NC(=O)[C@@H](NC(=O)[C@H](Cc1cnc[nH]1)NC(=O)[C@@H]1CCCN1)C(C)C)C(=O)N[C@H](C(=O)N1CCC[C@H]1C(=O)N[C@@H](CO)C(=O)N1CCC[C@H]1C(=O)N[C@@H](CCCCN)C(=O)N[C@@H](CCCN=C(N)N)C(=O)N1CCC[C@H]1C(=O)N[C@H](C(=O)N[C@@H](CCCCN)C(=O)N[C@@H](CC(C)C)C(=O)N[C@@H](CC(C)C)C(=O)N[C@@H](CO)C(=O)NCC(=O)O)C(C)C)[C@@H](C)CC [PHVALKPGKLKFIIPSPKRPVKLLSG]
